This note sets out measurements from publication PMC9709915, “A Single Point Mutation Blocks the Entrance of Ligands to the Cannabinoid CB2 Receptor via the Lipid Bilayer” (Journal of Chemical Information and Modeling, 2022).

The EC50 is the concentration that produces a half-maximal response.

What all share (test): inhibition of forskolin-stimulated cAMP, Lance-Ultra cAMP kit, HTRF
Holding throughout (assay type): cell-based

Assay [1] has as its target T1, CB2R (hCB2R) (Homo sapiens, UniProt P34972).
T1 construct: gene CNR2; full-length hCB2R cDNA in pcDNA3.1, transiently expressed in HEK-293T cells; no tag mentioned
From the text: (§1) inhibition of forskolin-stimulated cAMP, Lance-Ultra cAMP kit, HTRF on CB2R (hCB2R)

The target of assay [2] is T2, CB2R (hCB2R) (Homo sapiens, UniProt P34972, V36M).
T2 construct: gene CNR2; full-length hCB2R cDNA in pcDNA3.1, transiently expressed in HEK-293T cells; no tag mentioned
T2 sequence (P34972 whole entry V36M): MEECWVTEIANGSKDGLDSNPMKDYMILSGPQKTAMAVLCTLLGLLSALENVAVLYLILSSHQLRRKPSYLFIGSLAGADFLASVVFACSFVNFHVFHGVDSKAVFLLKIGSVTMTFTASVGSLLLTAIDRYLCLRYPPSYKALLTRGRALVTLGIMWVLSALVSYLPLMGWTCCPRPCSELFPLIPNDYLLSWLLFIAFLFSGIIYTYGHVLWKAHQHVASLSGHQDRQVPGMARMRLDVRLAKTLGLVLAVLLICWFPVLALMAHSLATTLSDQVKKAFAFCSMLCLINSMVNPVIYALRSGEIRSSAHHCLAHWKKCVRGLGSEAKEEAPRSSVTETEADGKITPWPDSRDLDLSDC
Source text: as §1

Assay [3] deals with T3, CB2R (hCB2R) (Homo sapiens, UniProt P34972, A282F).
T3 construct: gene CNR2; full-length hCB2R cDNA in pcDNA3.1, transiently expressed in HEK-293T cells; no tag mentioned
T3 sequence (P34972 whole entry A282F): as the sequence (P34972 whole entry V36M) above, with M36V, A282F counted along it
Source text: as §1

The target in assay [4] is T4, CB2R (hCB2R) (Homo sapiens, UniProt P34972, A282M).
T4 construct: gene CNR2; full-length hCB2R cDNA in pcDNA3.1, transiently expressed in HEK-293T cells; no tag mentioned
T4 sequence (P34972 whole entry A282M): as the sequence (P34972 whole entry V36M) above, with M36V, A282M counted along it
Source text: as §1

In assay [5] the target is T5, CB2R (hCB2R) (Homo sapiens, UniProt P34972, V36F).
T5 construct: gene CNR2; full-length hCB2R cDNA in pcDNA3.1, transiently expressed in HEK-293T cells; no tag mentioned
T5 sequence (P34972 whole entry V36F): as the sequence (P34972 whole entry V36M) above, with M36F counted along it
Source text: as §1

T1 sequence (P34972 whole entry): as the sequence (P34972 whole entry V36M) above, with M36V counted along it

Take `CCCC(C)(C)c1ccc2c(c1)OC(C)(C)[C@@H]1CC=C(C)C[C@@H]21` [JWH-133]: the EC50 on CB2R (hCB2R) [1] is 31.6 nM; on CB2R (hCB2R) [2] it was 12.6 nM; at CB2R (hCB2R) [3] it was 316 nM; at CB2R (hCB2R) [4], 15.8 nM; on CB2R (hCB2R) [5], 158 nM.
